The values that follow are results of earlier work, collected in patent publication US20240207270A1, “COMPOUNDS AND COMPOSITIONS FOR MODULATING LIPID METABOLISM” (WaveBreak Inc., priority 2021, published 2024).

SMILES strings stand for the structures.

For this series, the target named is ROCK. The note with it: ATP-competitive inhibitor of ROCK.

Regarding `Cc1cncc2cccc(S(=O)(=O)N3CCCNC[C@@H]3C)c12` [(S)-H-1152], the Ki was 1.6 nM.

By Ki is commonly meant a measure of affinity in units of concentration, obtained from inhibition or displacement.
